Assay results published in US10258602B2 (Ocera Therapeutics, Inc., priority 2007, dated 2019).

What was measured:
CYP2B6 = biological target: T1, CYP2B6 (Homo sapiens, UniProt P20813); assay: Cytochrome P450 inhibition, CYP2B6; format: in vitro ADME; conditions: read-out: IC50 2B6
T1 construct: purchased BD Gentest, Becton-Dickinson (Supersomes); host or cells: insect cells
T1 sequence (P20813 1-491): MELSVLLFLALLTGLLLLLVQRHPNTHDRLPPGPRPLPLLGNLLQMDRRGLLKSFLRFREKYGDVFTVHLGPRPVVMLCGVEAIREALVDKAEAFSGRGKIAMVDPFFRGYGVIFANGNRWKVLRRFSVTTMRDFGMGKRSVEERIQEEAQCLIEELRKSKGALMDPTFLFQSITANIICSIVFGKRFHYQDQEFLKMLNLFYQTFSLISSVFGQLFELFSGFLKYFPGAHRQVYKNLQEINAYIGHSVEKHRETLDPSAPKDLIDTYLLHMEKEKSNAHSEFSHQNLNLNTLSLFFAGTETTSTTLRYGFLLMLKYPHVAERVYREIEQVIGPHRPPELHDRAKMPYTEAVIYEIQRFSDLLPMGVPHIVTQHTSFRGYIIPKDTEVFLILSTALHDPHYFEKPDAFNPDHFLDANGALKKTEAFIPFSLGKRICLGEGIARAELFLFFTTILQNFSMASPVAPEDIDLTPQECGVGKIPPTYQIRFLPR
From the text: K. Assay for Cytochrome P450 Inhibition
Cytochrome P450 enzymes are implicated in the phase I metabolism of drugs. The majority of drug-drug interactions are metabolism-based and, moreover, these interactions typically involve inhibition of cytochrome P450s. Six CYP450 enzymes (CYP1A2, CYP2C8, CYP2C9, CYP2C19, CYP2D6 and CYP3A4) appear to be commonly responsible for the metabolism of most drugs and the associated drug-drug interactions. Assays to determine the binding of compounds of the invention to the various metabolically important isoforms of cytochrome P450 metabolizing enzymes are commercially available, for example NoAb BioDiscoveries (Mississaugua, ON, Canada) and Absorption Systems (Exton, Pa., USA). As well, a number of appropriate methods have been described or reviewed in the literature. (White, R. E. Ann. Rev. Pharmacol. Toxicol. 2000, 40, 133-157; Li, A. P. Drug. Disc. Today 2001, 6, 357-366; Turpeinen, M.; Korhonen, L. E. Tolonen, A.; et al. Eur. J. Pharm. Sci, 2006, 29, 130-138.)
The key aspects of the experimental method were as follows: • 1. […] Assays monitored, via fluorescence detection, the formation of a fluorescent metabolite following incubation of the microsomes with a specific CYP substrate. • 3. Compounds of the present invention were tested in duplicate samples at eight test concentrations using 3-fold serial dilutions (concentration range of 0.0457 to 100 μM). • 4. For each CYP-450 enzyme, a specific inhibitor was tested in duplicate at eight concentrations as a positive control. • 5. The concentration of the inhibitor or test compound that inhibited metabolite formation by 50% (IC50) was calculated by non-linear regression analysis of the % inhibition vs. log concentration (M) curve.

Caco-2 cell layer = assay: Caco-2 permeability; conditions: for Papp A to B: Caco-2, apical to basolateral; for Papp A to B / Papp B to A: 10 μM, 60 min, 37° C.; for Papp B to A: Caco-2, basolateral to apical; for BtoA/AtoB: Caco-2 ratio of Papp B to A over A to B
Experimental: L. Determination of Caco-2 Permeability
Fully differentiated cell monolayers can be used to assess the membrane transport properties of novel compounds.
Permeability across the Caco-2 cell layer was determined by growing the cells on a membrane placed between two (donor and acceptor) chambers. […] Permeability in this direction represents intestinal absorption. Permeability may also be determined from the basolateral to the apical side of the Caco-2 cell. A higher apical to basolateral Papp, compared to the basolateral to apical Papp, is indicative of carrier-mediated transport.
Permeability (10 μM) for compounds of the invention in the apical to basolateral and basolateral to apical direction were tested in duplicate. Samples will be collected from the donor and acceptor chambers at the beginning (0 min) and following 60 min of incubation at 37° C. and stored frozen at −70° C. until bioanalysis. Samples for each test compound generated from the Caco-2 permeability assay were further analyzed by LC-MS-MS. The permeability of [^3H]-mannitol and [^3H]-propranolol were determined in parallel as controls.
The permeability coefficient (Papp) of each compound and radiolabeled standard was determined using the following equation:
where dQ/dT represents the permeability rate, Ci denotes the initial concentration in the donor compartment, and A represents the surface area of the filter. Ci is determined from the mean concentration of duplicate samples taken prior to addition to the donor compartment. Permeability rates were calculated by plotting the cumulative amount of compound measured in the acceptor compartment over time and determining the slope of the line by linear regression analysis. The duplicate and mean apical to basolateral and basolateral to apical Papp's were reported for each compound and standard.

hGHS-R1a = biological target: T2, hGHS-R1a (Homo sapiens, UniProt Q92847); assay: Activation-desensitization profile, Ca2+ flux in HEK293 cells stably expressing hGHS-R1a; format: cell-based; conditions: higher positive = less desensitization potential
T2 construct: expressed in transfected cells
Experimental: M. Activation-Desensitization Profile
It is well-known that agonists of G-protein coupled receptors can induce desensitization or tachyphylaxis, thereby limiting the potential of agents acting at the receptor as therapeutics for chronic use.
• 1. […] Agonist-induced Ca^+2 fluxes were measured after loading with Ca^+2 indicator Fluo-4-AM. • 3. […] Results

[1] = Plasma protein binding, rat plasma; format: in vitro ADME; conditions: test concentration 5 μg/mL
[2] = biological target: GHS-R1a receptor (human ghrelin receptor) (Homo sapiens, UniProt Q92847); assay: Aequorin functional assay (ghrelin receptor), standard method B; format: cell-based
From the text: B. Aequorin Functional Assay (Ghrelin Receptor)
See also U.S. patent application Ser. Nos. 11/149,512 and 11/149,731. (LePoul, E.; et al. J. Biomol. Screen. 2002, 7, 57-65; Bednarek, M. A.; et al. J. Med. Chem. 2000, 43, 4370-4376; Palucki, B. L.; et al. Bioorg. Med. Chem. Lett. 2001, 11, 1955-1957.) Functional activity at the gherlin receptor for representative compounds of the present invention is presented in the Examples.

[3] = system: rat stomach fundus strips; assay: tissue or blood; conditions: read-out: EC50 values for contractility
Experimental: Fundus strips (approximately 0.4×1 cm) were cut from the stomach of adult male Wistar rats parallel to the circular muscle fibers. They were placed between two platinum ring electrodes, 1 cm apart (Radnoti, ADInstruments, USA) in 10 ml tissue baths containing Krebs solution bubbled with 5% CO2 in O2 and maintained at 37° C. Tissues were suspended under 1.5 g resting tension. Changes of tension were measured isometrically with force transducers and recorded with a PowerLab 8/30 data acquisition system (ADInstruments, USA). Tissues were allowed to equilibrate for 60 min during which time bath solutions were changed every 15 min.
EFS was achieved by applying 0.5 ms pulses, 5 Hz frequency, at a maximally effective voltage of 70 V. EFS was applied for 30 sec at 3 min intervals for a 30 min initial period. This initial period was separated by a 5 min interval with wash out of the bath solution. Then, a second period of stimulation was started. […] Responses to the agents were measured and expressed as % of the mean of three or four pre-drug responses to EFS. All compounds were dissolved at 1 mM in distilled water or MeOH, as stock solutions.

[4] = Plasma protein binding, human plasma (equilibrium dialysis); format: in vitro ADME; conditions: test concentration 5 μg/mL
Method in brief: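 Human plasma incubated with test article at several concentrations for 60 min at 37° C. Bound and unbound fractions separated by equilibrium dialysis; unbound concentration quantified by LC-MS or LC-MS-MS.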

T2 sequence (Q92847 whole entry): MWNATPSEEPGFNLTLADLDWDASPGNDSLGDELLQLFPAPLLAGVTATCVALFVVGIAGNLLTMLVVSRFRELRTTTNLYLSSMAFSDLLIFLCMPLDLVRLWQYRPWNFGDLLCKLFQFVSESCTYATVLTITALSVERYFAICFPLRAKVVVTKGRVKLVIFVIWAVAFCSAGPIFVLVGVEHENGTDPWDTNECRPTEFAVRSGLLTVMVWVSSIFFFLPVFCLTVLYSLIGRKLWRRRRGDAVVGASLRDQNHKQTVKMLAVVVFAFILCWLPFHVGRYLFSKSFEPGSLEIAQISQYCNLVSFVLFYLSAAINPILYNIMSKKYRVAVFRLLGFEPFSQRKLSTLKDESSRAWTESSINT
GHS-R1a receptor (human ghrelin receptor), sequence (Q92847 whole entry): as above

SMILES	IC50 (CYP2B6) [µM]	Papp A to B (Caco-2 cell layer) [cm/sec × 10^−6]	Papp B to A (Caco-2 cell layer) [cm/sec × 10^−6]	BtoA/AtoB (Caco-2 cell layer)	other results
CC(C)CC1NC(=O)C(C)N(C)C(=O)C(C2CC2)NCC(C)OC2CCCCC2CCCNC1=O (mixture of isomers) [Compound 825]	> 100	113	123	1.08	
CC1CNC(C2CC2)C(=O)N(C)C(C)C(=O)NC(Cc2ccc(O)cc2)C(=O)NCCCC2CCCCC2O1 (mixture of isomers) [Compound 826]	> 100	11.2	46.9	4.18	Δ(activity-desensitization) (pEC50 − pDC50) (hGHS-R1a): 1.90
CC(C)CC1NC(=O)C(C)N(C)C(=O)C(C2CCCCC2)NCC(C)OC2CCCCC2CCCNC1=O (mixture of isomers) [Compound 828]	> 100				
C[C@@H]1C(=O)N[C@H](Cc2ccc(O)cc2)C(=O)NCCCc2cccc3c2O[C@H](CC3)CN[C@@H](C2CC2)C(=O)N1C [Compound 803]	53.6	12.1	67.3	5.59	
CC(C)C[C@H]1NC(=O)[C@@H](C)N(C)C(=O)[C@H](C2CC2)NC[C@@H](C)Oc2ccccc2CC[C@H](C)NC1=O [Compound 807]	> 100				fraction unbound at 60 min, 5 μg/mL [1]: 0.16; EC50 [2]: ≤ 50 nM; EC50 [3]: 150 nM; Δ(activity-desensitization) (pEC50 − pDC50) (hGHS-R1a): 3.08; fraction unbound at 60 min, 5 μg/mL [4]: 0.007
C[C@@H]1C(=O)N[C@H](Cc2ccc(O)cc2)C(=O)NCCCc2ccc(F)cc2OCCN[C@@H](C2CC2)C(=O)N1C [Compound 809]	> 100				
CC(C)C[C@H]1NC(=O)[C@@H](C)N(C)C(=O)[C@H](C2CC2)NCCOc2cc(F)ccc2CCCNC1=O [Compound 810]	102				
CC1NC(C2CC2)C(=O)N(C)C(C)C(=O)NC(Cc2ccc(O)cc2)C(=O)NCCCc2ccccc2OC1C (stereo not drawn) [Compound 820]	> 100				
CC(C)C[C@H]1NC(=O)[C@@H](C)N(C)C(=O)[C@H](C2CC2)NCCOc2cc(F)ccc2CC[C@H](C)NC1=O [Compound 822]	> 100				
